The source of these data is patent publication US20250115628A1, “FLUORINATED FLUOROPHORES” (HOWARD HUGHES MEDICAL INSTITUTE, priority 2023, published 2025).

Data set [1] has as its system U2OS cells stably expressing HaloTag®-histone H2B fusion protein. The experiment in a line: Loading experiments with NIR-excited HaloTag® ligands (nuclear fluorescence). Conditions: 200 nM; live cells expressing HaloTag®-histone H2B. The format is cell-based. The procedure:
U2OS cells (ATCC) and U2OS cells stably expressing an integrated HaloTag®-histone H2B fusion protein (U2OS·H2B·HaloTag®) were cultured in Dulbecco's modified Eagle medium (DMEM, phenol red-free; Life Technologies) supplemented with 10% (v/v) fetal bovine serum (FBS, Life Technologies), 1 mM GlutaMAX (Life Technologies) and maintained at 37° C. in a humidified 5% (v/v) CO2 environment. These cell lines undergo regular mycoplasma testing by the Janelia Cell Culture Facility. For mitochondrial imaging using the HaloTag® system, U2OS cells were transiently transfected using nucleofection (Lonza) with a plasmid constitutively expressing a HaloTag®-TOMM20 fusion protein, which is located on the outer mitochondrial membrane. For 4^−color imaging, U2OS·H2B·HaloTag® stable cells were transiently transfected by nucleofection with plasmids constitutively expressing a SNAP-tag®-TOMM20 fusion protein, and a GFP-SKL (SKL: serine-lysine-leucine) fusion protein, a prototypical peroxisomal matrix targeting signal. All labeled cells were imaged 18-24 h post-transfection or post-plating.
For loading curve experiments (FIG. 15C), U2OS·H2B·HaloTag® stable cells were incubated with 200 nM HaloTag® ligand conjugated dyes (31HTL, 36HTL, 38HTL, 104HTL, 106HTL, 107HTL, and 108HTL) for 0-4 h at 37° C., washed 3× with dye-free media then fixed with 4% paraformaldehyde in 0.1 M phosphate buffer, pH 7.4 for 15 min at 37° C. Confocal imaging was performed on a Leica Stellaris with an HC PL APO 40×/1.25 glycerol objective using the tunable white light laser (WLL) to excite dyes at their λabs in constant power mode. Fluorescence was quantified as the integrated density of nuclear signals in single-plane images analyzed in FIJI;^82 n=100 nuclear signals per compound.

Data set [2] can be described thus: General UV-vis and fluorescence spectroscopy. The format is physicochemical. The note with it: rhodamine derivatives; 10 mM HEPES, pH 7.3. The procedure:
Spectroscopy was performed using 1^−cm path length, 3.5^−mL quartz cuvettes or 1^−cm path length, 1.4^−mL semi-micro quartz cuvettes from Starna Cells. All measurements were taken at ambient temperature (22±2° C.). Absorption spectra were recorded on a Cary Model 100 spectrometer (Agilent), and fluorescence spectra were recorded on a Cary Eclipse fluorometer (Varian). The spectra, maximum absorption wavelength (labs), extinction coefficient at λabs (8), and maximum emission wavelength (em) were measured in 10 mM HEPES, pH 7.3 buffer (rhodamines and Malachite Green derivative 49) or 0.1 M NaOH (fluoresceins); the reported values for e are averages (n=3). Normalized spectra are shown for clarity.

Data set [3] is described as follows: Quantum yield determination. Conditions: rhodamine derivatives; 10 mM HEPES, pH 7.3. The format is physicochemical. As for the experimental part:
All reported absolute fluorescence quantum yield values (Φf) were measured using a Quantaurus-QY spectrometer (model C11374, Hamamatsu). This instrument uses an integrating sphere to determine photons absorbed and emitted by a sample. Measurements were carried out using dilute samples (A<0.1), and self-absorption corrections were performed using the instrument software.^81

Data set [4] deals with JM8·N4 mouse embryonic stem cells stably expressing histone H2B-HaloTag® fusion proteins. The experiment in a line: Single-particle tracking (SPT) experiments. The format is cell-based. The note with it: for performance in SPT experiments compared with 1HTL and 89HTL: HaloTag® ligands, 50 Hz imaging. The procedure:
SPT experiments were carried out as previously described.^84 JM8·N4 mouse embryonic stem cells (ESCs) stably expressing histone H2B-HaloTag® fusion proteins were generated by co-expressing the PiggyBac EF1a-H2B-HaloTag®-IRES-Neo vector with the super piggyBac transposase as described previously,85 followed by G418 selection (500 μg/mL) for 2 weeks and verified by FACS sorting/confocal imaging staining with JF549-HaloTag® ligand (84HTL; 100 nM, 30 min). Cells were seeded on 25 mm #1.5 coverglass pre-cleaned with KOH and ethanol and coated with iMatrix-511 (TaKaRa #T304) or rhLaminin-521 (Gibco™ #A^29248) according to the manufacturers' instruction. All live-cell imaging experiments were conducted using an ESC imaging medium composed of FluoroBrite DMEM (ThermoFisher) plus 15% v/v ESC-qualified FBS, 1× GlutaMax, 1×NEAA, 0.1 mM 2^−mercaptoethanol, and LIF. For comparison of 59HTL and 89HTL (FIG. 13E, 13F) the histone H2B-HaloTag® ESCs were stained with 5 nM 59HTL for 1 h or 0.1 nM 89HTL for 15 min at 37° C. with 5% (v/v) CO2 to achieve sparse labeling with approximately equal localizations per region of interest (ROI), and then washed with dye-free media 3× for 30 min each wash For comparison of 40HTL, 44HTL, 1HTL, or 89HTL (FIG. 12A-12G) the histone H2B-HaloTag® ESCs were stained with 1 nM of HaloTag® ligands for 15 min at 37° C. with 5% (v/v) CO2 to achieve sparse labeling, and then washed with dye-free media 3× for 30 min each wash.
To quantify the brightness and photostability of the HaloTag® ligands, labeled cells were mounted onto a high speed motorized Nikon Eclipse Ti-E inverted microscope equipped with the following: 100× Apo TIRF 1.49 NA objective with a correction collar; four excitation laser lines (405/488/561/642 nm) and matching TIRF quad cube (405/488/561/640 nm reflection bands); automatic TIRF illuminator with motorized X axis and manual Y axis for beam positioning and focus: perfect focus 3 system; Triple DU-897 iXon Ultra EMCCD cameras on a Cairn Tri-cam emission splitter with filters 525/50 (GFP) 600/50 (RFP) and 705/72 (Cy5); humidified incubation chamber maintained at 37° C. with 5% v/v CO2 (Tokai Hit). SPT was performed at 100 Hz for the comparison of 59HTL and 89HTL (FIG. 13E, 13F) and 50 Hz for the comparison of 40HTL, 44HTL, 1HTL, or 89HTL (FIG. 12A-12G); the imaging session was performed for ˜5000 frames using 100% of maximal excitation power (˜120 mW at the fiber end before the TIRF unit). […] For the comparison of HaloTag® ligands 59HTL and 89HTL (FIG. 13E, 13F) and the comparison of compounds 40HTL, 44HTL, 1HTL, and […] (FIG. 12A-12G), the fluorophores were excited with a 647 nm laser. To minimize drift during imaging, the incubation chamber was fully thermally equilibrated, and all imaging was conducted in an isolated ultra-clean room with minimal mechanical vibrations. The microscope, laser lines, and camera integration were controlled using the Nikon NIS-Elements software. Cells with obvious movement during acquisition were removed from further analysis. SMT analysis was based on multiple target tracing 86 (MTT) with tracking parameters similar to previous work.^84 For SPT brightness (photon counts/molecule/s), intensity values from sparsely-labeled molecules were analyzed. For the comparison of HaloTag® ligands 59HTL and 89HTL (FIG. 13E, 13F): n=147,298 single-molecule events using 59HTL; n=100,392 single-molecule events using 89HTL. […]

Data set [5] in a line: Determination of KL-Z (lactone-zwitterion equilibrium constant). Further details: key: KL-Z = (εdw/εmax)/(1−εdw/εmax); εdw measured in 1:1 dioxane/water. The class given is physicochemical. Conditions: rhodamine derivatives; 1:1 dioxane:H2O. As for the experimental part: KL-Z was calculated using the following equation:^16, 18 KL-Z=(εdw/εmax)/(1−εdw/εmax). εdw is the extinction coefficient of the dyes in a 1:1 (v/v) dioxane/water solvent mixture; this dioxane/water mixture was chosen to give the maximum spread of KL-Z values across all classes of rhodamines.^18 εmax refers to the maximal extinction coefficients measured in different solvent mixtures empirically determined depending on dye type: 0.1% v/v trifluoroacetic acid in ethanol for 18, 20, 29, 34, 36, 70-72, 81-83, 93-95, 99-102, and 104; 0.1% v/v trifluoroacetic acid in 2,2,2^−trifluoroethanol for all other rhodamine variants. A accurate determination of low KL-Z values is complicated by the relatively poor sensitivity of absorbance measurements.

For data set [6] the following is noted: rhodamine derivatives; 1:1 dioxane:H2O; data from the inventors' published work; cited from earlier work.
The conditions of data set [7]: rhodamine derivatives; 10 mM HEPES, pH 7.3; data from the inventors' published work; cited from earlier work.
The conditions of data set [8]: rhodamine derivatives; 10 mM HEPES, pH 7.3; data from the inventors' published work; cited from earlier work. This is another data set of the same source.

Like-named read-outs stand apart in the source and are kept apart here.

Take `CC1=CC(C)(C)Nc2cc3c(cc21)C(c1c(F)c(C(=O)NCCOCCOCCCCCCCl)c(F)c(F)c1C(=O)O)=c1cc2c(cc1[Si]3(C)C)=NC(C)(C)C=C2C` [36HTL, 4^−((2^−(2^−((6^−Chlorohexyl)oxy)ethoxy)ethyl)carbamoyl)-2,3,5^−trifluoro-6-(2,2,4,8,10,10,13,13^−octamethyl-2,10,11,13^−tetrahydrosilino [3,2^−g:5,6^−g′]diquinolin-6^−ylium-6(1H)-yl)benzoate]: the cellular intensity entry in data set [1] is “relatively low intensity”.
Turning to `CC1=CC(C)(C)N(C)c2cc3c(cc21)C(c1c(F)c(C(=O)NCCOCCOCCCCCCCl)c(F)c(F)c1C(=O)[O-])=c1cc2c(cc1[Si]3(C)C)=[N+](C)C(C)(C)C=C2C` [38HTL, 4^−((2^−(2^−((6^−Chlorohexyl)oxy)ethoxy)ethyl)carbamoyl)-2^−(1,2,2,4,8,10,10,11,13,13-decamethyl-2,10,11,13^−tetra-hydrosilino[3,2^−g:5,6^−g′]diquinolin-6^−ylium-6(1H)-yl)-3,5,6-trifluorobenzoate], the cellular intensity result in data set [1] was “relatively low intensity”.
Turning to `[2H]C1([2H])N(c2ccc3c(c2)C(C)(C)C2=CC(=[N+]4C([2H])([2H])C([2H])([2H])C([2H])([2H])C4([2H])[2H])C=CC2=C3c2c(F)c(F)c(F)c(F)c2C(=O)[O-])C([2H])([2H])C([2H])([2H])C1([2H])[2H]` [compound 40, JFX637], in data set [2], the ε is on record as 147,000 M^−1cm^−1 and the λabs turned out to be 637 nm. The compound also returned a Φf in data set [3] of 0.56. The “performance in SPT experiments compared with 1HTL and 89HTL” value in data set [4] was “comparable performance”. Besides, the KL-Z in data set [5] is 6.12.
Take `CC1(C)C2=CC(=[N+]3CCC3)C=CC2=C(c2c(F)c(F)c(F)c(F)c2C(=O)[O-])c2ccc(N3CCC3)cc21` [compound 44, JF632]: in data set [2], the ε is on record as 139,000 M^−1cm^−1, the λabs worked out at 632 nm and the λem was determined as 649 nm. The Φf in data set [3] turned out to be 0.54. Further, in data set [4], the “performance in SPT experiments compared with 1HTL and 89HTL” value is reported as “comparable performance”. The compound further displayed a KL-Z in data set [5] of 3.59.
On to `CC1(C)c2cc(N3CCC3)ccc2C2(OC(=O)c3ccccc32)c2ccc(N3CCC3)cc21` [compound 86, JF608], for which, in data set [6], the KL-Z is recorded as 0.0911. Also, the Φf in data set [7] is listed as 0.67. In addition, in data set [8], the ε is 99,000 M^−1cm^−1, the λabs is recorded as 608 nm and the λem is recorded as 631 nm.
As to `[2H]C1([2H])N(c2ccc3c(-c4ccccc4C(=O)[O-])c4ccc(=[N+]5C([2H])([2H])C([2H])([2H])C([2H])([2H])C5([2H])[2H])cc-4oc3c2)C([2H])([2H])C([2H])([2H])C1([2H])[2H]` [compound 87], the KL-Z in data set [6] is 4.96. Further, in data set [7], the Φf was 0.80. Further, in data set [8], the λabs is 554 nm and the λem is recorded as 576 nm.
For the compound `[2H]C1([2H])N(c2ccc3c(c2)C(C)(C)C2=CC(=[N+]4C([2H])([2H])C([2H])([2H])C([2H])([2H])C4([2H])[2H])C=CC2=C3c2ccccc2C(=O)[O-])C([2H])([2H])C([2H])([2H])C1([2H])[2H]` [compound 88], in data set [6], the KL-Z is 0.880. In addition, the Φf in data set [7] is 0.70. Also, in data set [8], the ε is on record as 130,000 M^−1cm^−1, the λabs is 612 nm and the λem is on record as 633 nm.
As for JF669 [compound 2], the KL-Z in data set [6] was 0.262. In addition, the Φf in data set [7] is 0.37. In data set [8], the ε was 112,000 M^−1cm^−1, the λabs was 669 nm and the λem is recorded as 662 nm.
On to “JFX650-HaloTag® ligand [89HTL, reference compound]”, for which the “SPT localizations over time” value in data set [4] (100 Hz imaging) is recorded as “relatively rapid bleaching”.
